We go through 10 compounds from ChEMBL document CHEMBL5465560, “Selectivity Literature for EUbOPEN Chemogenomic Library” (2024).

The target of assay [1] is T1, MAP/microtubule affinity-regulating kinase 4 (Homo sapiens) (UniProt Q96L34).
T1 sequence (whole entry): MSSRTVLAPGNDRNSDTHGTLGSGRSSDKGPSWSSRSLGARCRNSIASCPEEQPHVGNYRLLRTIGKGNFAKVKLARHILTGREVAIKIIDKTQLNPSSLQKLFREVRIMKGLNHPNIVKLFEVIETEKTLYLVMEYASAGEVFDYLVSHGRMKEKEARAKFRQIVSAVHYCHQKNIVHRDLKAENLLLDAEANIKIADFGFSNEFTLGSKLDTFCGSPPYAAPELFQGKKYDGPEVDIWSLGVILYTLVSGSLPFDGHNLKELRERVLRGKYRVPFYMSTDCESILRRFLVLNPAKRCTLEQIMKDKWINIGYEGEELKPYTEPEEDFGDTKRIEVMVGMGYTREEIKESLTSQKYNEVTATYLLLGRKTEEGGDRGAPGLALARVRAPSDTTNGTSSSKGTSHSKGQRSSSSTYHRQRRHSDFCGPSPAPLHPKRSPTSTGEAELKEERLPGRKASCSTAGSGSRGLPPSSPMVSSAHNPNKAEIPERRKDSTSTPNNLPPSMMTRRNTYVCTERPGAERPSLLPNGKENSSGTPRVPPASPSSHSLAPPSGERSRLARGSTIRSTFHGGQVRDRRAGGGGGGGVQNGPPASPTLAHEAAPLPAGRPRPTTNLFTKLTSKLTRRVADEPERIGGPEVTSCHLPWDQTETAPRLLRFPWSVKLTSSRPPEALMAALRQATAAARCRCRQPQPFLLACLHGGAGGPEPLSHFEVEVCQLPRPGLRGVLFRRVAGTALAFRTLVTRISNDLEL
The note with it: at 10 µM.

Assay [2] concerns the target Non-receptor tyrosine-protein kinase TYK2 (Homo sapiens, UniProt P29597). Put plainly: Selectivity interaction (KinomeScan (DiscoverX)) EUB0001079a TYK2. The note with it: at 1 µM.
Assay [3] concerns the target Mitogen-activated protein kinase kinase kinase 11 (Homo sapiens) (UniProt Q16584). Description: Selectivity interaction (LanthaScreen Eu Kinase Binding Assay) EUB0001632a MAP3K11. Conditions: at 10 µM.
Assay [4] deals with Tyrosine-protein kinase ABL1 (Homo sapiens), P00519 [F317L]. Put plainly: Selectivity interaction (KinomeScan (DiscoverX)) EUB0000607a ABL1. Conditions: at 10 µM.
The target of assay [5] is T2, cGMP-dependent protein kinase 1 (Homo sapiens) (UniProt Q13976).
T2 sequence (whole entry): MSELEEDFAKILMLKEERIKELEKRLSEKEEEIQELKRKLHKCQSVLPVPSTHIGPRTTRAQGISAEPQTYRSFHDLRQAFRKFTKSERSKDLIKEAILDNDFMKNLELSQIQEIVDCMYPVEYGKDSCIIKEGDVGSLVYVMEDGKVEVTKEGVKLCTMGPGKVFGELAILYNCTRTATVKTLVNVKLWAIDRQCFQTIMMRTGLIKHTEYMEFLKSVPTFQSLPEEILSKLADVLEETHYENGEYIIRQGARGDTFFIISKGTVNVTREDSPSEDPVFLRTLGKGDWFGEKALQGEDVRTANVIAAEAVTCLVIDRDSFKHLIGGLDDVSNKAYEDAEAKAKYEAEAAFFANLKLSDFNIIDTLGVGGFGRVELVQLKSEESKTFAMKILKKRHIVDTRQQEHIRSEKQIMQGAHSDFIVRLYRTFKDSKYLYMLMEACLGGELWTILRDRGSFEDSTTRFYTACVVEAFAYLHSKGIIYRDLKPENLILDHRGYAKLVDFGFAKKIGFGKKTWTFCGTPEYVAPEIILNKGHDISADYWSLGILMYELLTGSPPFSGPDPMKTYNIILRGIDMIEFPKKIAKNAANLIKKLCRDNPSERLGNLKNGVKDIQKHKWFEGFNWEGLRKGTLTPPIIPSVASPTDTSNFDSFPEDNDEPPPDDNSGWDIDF
Put plainly: Selectivity interaction (Kinase panel (Invitrogen)) EUB0000639a PRKG1. The note with it: at 200 nM.

The target of assay [6] is Serine/threonine-protein kinase B-raf (Homo sapiens) (UniProt P15056). Description: Selectivity interaction (ActivX KiNativ screen (kinase selectivity in THP-1 cell lysates)) EUB0000639a BRAF. The format is subcellular. Conditions: lysate.
Sequence of Serine/threonine-protein kinase B-raf (Homo sapiens) (P15056 whole entry): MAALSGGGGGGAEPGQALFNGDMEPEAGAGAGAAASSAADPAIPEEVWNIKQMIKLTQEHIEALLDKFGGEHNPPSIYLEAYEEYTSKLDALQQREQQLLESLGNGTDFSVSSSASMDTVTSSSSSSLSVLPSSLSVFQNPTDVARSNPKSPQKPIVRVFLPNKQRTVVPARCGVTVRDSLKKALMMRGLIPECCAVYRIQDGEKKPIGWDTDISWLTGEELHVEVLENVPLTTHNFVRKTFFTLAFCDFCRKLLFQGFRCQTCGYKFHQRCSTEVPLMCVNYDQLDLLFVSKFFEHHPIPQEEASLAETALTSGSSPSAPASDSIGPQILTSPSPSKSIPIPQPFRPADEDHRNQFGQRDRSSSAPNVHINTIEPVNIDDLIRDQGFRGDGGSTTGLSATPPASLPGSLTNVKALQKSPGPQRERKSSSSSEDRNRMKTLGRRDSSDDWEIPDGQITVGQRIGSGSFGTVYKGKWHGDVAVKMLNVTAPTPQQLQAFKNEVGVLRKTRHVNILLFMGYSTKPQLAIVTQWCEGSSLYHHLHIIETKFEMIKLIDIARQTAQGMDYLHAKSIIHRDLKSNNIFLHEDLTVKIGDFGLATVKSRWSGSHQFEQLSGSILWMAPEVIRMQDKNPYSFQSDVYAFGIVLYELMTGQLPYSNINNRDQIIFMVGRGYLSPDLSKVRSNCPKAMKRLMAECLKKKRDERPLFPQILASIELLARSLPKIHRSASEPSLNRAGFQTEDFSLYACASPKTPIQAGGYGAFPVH
Assay [7] concerns the target Type-1 angiotensin II receptor (Homo sapiens, UniProt P30556). Description: Selectivity interaction (Angiotensin II AT1 receptor binding assay, human recombinant ) EUB0000877a AGTR1.
The target in assay [8] is Ribosomal protein S6 kinase alpha-6 (Homo sapiens, UniProt Q9UK32). Description: Selectivity interaction (Kinase panel (Eurofins, enzymatic assay)) EUB0000311b RPS6KA6.
For assay [9], the target named is Bromodomain-containing protein 4 (Homo sapiens, UniProt O60885). Put plainly: Selectivity interaction (Kinase panel (DSF assay)) EUB0001559a BRD4. In general terms: DSF heats the sample and reads unfolding from a dye or from intrinsic fluorescence.
Assay [10] deals with T3, Serine/threonine-protein kinase Sgk3 (Homo sapiens) (UniProt Q96BR1).
T3 sequence (whole entry): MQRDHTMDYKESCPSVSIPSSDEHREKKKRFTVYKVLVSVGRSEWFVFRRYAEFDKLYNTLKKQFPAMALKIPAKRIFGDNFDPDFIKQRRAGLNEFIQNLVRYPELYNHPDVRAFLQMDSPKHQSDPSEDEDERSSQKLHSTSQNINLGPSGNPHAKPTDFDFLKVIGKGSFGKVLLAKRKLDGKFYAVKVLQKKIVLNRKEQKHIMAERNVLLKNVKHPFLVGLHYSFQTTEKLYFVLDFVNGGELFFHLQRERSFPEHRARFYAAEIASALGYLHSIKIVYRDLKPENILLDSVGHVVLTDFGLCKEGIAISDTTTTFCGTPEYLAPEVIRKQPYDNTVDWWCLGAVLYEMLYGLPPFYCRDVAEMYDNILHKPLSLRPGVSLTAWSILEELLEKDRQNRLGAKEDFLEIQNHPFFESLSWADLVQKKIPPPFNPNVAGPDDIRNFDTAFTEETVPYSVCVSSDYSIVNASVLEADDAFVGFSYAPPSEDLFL
Description: Selectivity interaction (KinomeScan (DiscoverX)) EUB0000595a SGK3. The note with it: at 10 µM.

The target of assay [11] is Serine/threonine-protein kinase SIK3 (Homo sapiens) (UniProt Q9Y2K2). Description: Selectivity interaction (KinomeScan (DiscoverX)) EUB0000618a SIK3. Conditions: at 10 µM.
Sequence of Serine/threonine-protein kinase SIK3 (Homo sapiens) (Q9Y2K2 whole entry, looked up): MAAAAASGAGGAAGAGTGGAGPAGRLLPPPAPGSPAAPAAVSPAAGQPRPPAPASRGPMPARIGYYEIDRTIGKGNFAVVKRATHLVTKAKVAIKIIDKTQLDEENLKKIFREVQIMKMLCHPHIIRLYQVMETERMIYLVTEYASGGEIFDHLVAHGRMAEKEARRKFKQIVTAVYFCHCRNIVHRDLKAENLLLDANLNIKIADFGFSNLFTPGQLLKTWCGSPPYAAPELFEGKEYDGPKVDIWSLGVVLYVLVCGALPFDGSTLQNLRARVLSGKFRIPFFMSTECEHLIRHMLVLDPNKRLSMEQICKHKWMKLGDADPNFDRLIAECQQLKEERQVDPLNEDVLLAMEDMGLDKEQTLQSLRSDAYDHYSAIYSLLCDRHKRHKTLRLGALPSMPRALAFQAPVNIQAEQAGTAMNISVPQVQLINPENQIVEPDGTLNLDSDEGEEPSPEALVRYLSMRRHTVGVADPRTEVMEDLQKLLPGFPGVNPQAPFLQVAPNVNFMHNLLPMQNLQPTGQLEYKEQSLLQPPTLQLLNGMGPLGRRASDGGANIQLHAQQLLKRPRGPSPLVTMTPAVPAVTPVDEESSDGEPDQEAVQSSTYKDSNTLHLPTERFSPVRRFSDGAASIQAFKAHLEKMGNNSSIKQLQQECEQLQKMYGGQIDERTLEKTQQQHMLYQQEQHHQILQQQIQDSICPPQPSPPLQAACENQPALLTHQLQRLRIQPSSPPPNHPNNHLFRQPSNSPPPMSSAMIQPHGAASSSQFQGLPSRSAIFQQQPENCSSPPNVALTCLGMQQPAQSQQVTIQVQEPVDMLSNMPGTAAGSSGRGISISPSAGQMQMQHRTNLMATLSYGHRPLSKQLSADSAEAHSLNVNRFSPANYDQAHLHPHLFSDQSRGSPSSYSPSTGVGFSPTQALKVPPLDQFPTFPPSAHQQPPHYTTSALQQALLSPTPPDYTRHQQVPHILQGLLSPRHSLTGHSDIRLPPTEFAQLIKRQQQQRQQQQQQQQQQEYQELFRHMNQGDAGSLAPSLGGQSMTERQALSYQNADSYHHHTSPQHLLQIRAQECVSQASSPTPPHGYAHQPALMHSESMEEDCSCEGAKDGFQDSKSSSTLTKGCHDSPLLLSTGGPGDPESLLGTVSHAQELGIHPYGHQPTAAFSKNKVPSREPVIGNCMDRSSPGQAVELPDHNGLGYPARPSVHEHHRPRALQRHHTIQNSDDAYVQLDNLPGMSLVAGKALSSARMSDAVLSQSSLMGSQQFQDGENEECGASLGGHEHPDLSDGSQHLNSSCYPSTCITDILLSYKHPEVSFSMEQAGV

pIC50: −log10 of the molar value.

Sequence of Non-receptor tyrosine-protein kinase TYK2 (P29597 whole entry): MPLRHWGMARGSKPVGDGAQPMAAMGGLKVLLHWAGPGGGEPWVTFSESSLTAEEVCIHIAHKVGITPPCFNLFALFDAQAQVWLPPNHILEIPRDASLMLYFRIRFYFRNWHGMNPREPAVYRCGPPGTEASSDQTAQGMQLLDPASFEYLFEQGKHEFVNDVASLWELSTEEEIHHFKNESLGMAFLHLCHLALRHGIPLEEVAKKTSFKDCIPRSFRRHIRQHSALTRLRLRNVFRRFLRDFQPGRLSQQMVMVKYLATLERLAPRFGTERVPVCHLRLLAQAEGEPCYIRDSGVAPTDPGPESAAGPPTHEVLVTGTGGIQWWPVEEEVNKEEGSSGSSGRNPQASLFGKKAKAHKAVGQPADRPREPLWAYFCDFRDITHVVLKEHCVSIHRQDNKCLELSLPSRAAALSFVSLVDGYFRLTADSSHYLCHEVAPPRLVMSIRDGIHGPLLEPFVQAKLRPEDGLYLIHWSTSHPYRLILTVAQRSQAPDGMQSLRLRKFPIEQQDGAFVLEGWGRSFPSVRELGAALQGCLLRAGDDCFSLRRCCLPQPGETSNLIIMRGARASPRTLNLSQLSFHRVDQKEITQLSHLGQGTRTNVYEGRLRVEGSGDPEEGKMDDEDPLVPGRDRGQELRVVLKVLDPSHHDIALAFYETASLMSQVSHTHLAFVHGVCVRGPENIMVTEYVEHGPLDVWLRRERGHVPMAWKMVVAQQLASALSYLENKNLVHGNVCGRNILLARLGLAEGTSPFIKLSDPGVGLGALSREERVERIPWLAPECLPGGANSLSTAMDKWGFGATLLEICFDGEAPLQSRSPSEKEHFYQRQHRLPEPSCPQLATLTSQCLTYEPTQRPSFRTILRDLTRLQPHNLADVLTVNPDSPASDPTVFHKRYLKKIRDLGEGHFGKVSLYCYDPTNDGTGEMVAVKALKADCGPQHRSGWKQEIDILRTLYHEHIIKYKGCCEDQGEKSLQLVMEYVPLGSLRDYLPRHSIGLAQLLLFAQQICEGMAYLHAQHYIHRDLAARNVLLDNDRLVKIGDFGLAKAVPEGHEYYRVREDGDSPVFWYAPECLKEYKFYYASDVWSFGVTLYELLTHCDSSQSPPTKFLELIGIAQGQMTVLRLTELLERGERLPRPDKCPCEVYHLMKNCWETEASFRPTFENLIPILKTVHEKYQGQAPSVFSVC
Sequence of Mitogen-activated protein kinase kinase kinase 11 (Homo sapiens) (Q16584 whole entry, looked up): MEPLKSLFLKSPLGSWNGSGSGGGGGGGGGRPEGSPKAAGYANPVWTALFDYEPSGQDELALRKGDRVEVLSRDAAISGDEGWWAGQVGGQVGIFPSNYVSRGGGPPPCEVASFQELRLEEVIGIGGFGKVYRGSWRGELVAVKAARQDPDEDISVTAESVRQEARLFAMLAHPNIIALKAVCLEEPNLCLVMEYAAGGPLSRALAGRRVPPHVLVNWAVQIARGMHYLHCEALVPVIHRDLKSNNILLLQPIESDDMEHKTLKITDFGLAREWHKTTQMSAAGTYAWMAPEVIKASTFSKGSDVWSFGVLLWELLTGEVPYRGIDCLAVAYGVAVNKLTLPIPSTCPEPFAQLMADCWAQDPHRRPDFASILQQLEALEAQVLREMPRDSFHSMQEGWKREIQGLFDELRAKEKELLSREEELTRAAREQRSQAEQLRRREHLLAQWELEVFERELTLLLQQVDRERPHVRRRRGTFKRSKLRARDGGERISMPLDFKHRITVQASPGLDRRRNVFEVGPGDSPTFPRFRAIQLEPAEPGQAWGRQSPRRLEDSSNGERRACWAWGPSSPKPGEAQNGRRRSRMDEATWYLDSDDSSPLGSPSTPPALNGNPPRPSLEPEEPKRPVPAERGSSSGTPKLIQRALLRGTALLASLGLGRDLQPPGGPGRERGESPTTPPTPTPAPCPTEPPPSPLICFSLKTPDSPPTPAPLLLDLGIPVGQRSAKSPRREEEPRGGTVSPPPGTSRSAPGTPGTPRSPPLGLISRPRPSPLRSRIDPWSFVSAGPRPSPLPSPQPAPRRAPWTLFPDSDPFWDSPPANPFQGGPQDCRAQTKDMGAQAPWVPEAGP
Sequence of Type-1 angiotensin II receptor (P30556 whole entry): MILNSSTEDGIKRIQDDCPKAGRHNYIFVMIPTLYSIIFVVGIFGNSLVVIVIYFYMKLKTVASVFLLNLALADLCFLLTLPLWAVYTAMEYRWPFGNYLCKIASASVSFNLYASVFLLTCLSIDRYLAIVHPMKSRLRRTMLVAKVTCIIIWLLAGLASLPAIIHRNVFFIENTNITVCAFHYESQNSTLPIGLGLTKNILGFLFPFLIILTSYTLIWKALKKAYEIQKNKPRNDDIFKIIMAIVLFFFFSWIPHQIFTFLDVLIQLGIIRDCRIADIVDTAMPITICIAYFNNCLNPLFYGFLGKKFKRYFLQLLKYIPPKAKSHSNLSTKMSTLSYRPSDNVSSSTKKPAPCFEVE

In [1], `Cc1cc([C@@H](C)Nc2ccccc2C(=O)O)c2nc(N3CCOCC3)cc(=O)n2c1` [AZD-6482] displayed a % of control of 100%.

For `Nc1cnc(N2CCc3cc(S(=O)(=O)Nc4c(F)cc(Cl)cc4F)cc(N4CCCC4=O)c32)nc1` [TP-020n], the % of control in assay [2] was determined as 100%.

For `Cn1cc(-n2cnc3c(NCc4nc5cc(Cl)c(Cl)cc5[nH]4)nc(N4CCOCC4)nc32)cn1`, the % of inhibition in assay [3] was -0.811%.

On to `CNC(=O)Nc1ccc(-c2nc(N3CC4CCC(C3)O4)c3cnn(C4CCC5(CC4)OCCO5)c3n2)cc1`, for which, in assay [4], the % of control stood at 96%.

In the case of `CC[C@@H]1[C@H](F)C(=O)N[C@@H]1COc1nccc2cc(C(N)=O)c(OC)cc12` [ZIMLOVISERTIB], the % of inhibition in [5] is 8.62%; in assay [6] (at 0.01 µM), 7.3%; in [6] (at 0.04 µM), 15.4%; in assay [6] (at 0.2 µM), -0.2%; in assay [6] (at 1 µM), -0.4%; in [6] (at 5 µM) it was -15.5%.

By pIC50 is commonly meant the negative decadic logarithm of the IC50, by convention in mol/L. As for `CCC(=O)N1CC[C@H](Nc2ncnc3c2CN(c2cnc(OC)c(C(F)(F)F)c2)CC3)C1` [LENIOLISIB], the negative-log IC50 (pIC50) in assay [7] was less than 4.52.

Compound `CCc1ccccc1C(=O)Nc1n[nH]c2c(C)c(F)c(C3C(C#N)=C(C)N(C)C(C)=C3C#N)cc12` [BAY-3827] showed a pIC50 in assay [8] of 7.44.

Consider `CN(C(=O)c1cnn2cccnc12)c1cc2c(cc1N1CCOCC1)C(=O)N(C[C@@H](F)C(C)(C)O)C2`, for which the dTM in assay [9] was -0.8 K.

As for `COCC(=O)NC/C=C/c1ccc2ncnc(Nc3ccc(Oc4ccc(C)nc4)c(C)c3)c2c1` [CP-724714], in assay [10], the % of control was 100%.

As to `O[C@H]1CC[C@H](Nc2ncc3nc(Nc4c(F)cc(F)cc4F)n([C@H]4CCOC4)c3n2)CC1`, the % of control in assay [11] came out at 22%.
